Experimental data published in patent US12145917B2, “Crystalline forms of a compound for treating or preventing gout or hyperuricemia” (Arthrosi Therapeutics, Inc., priority 2019, dated 2024).

Assays:
[1] = Dynamic vapor sorption (DVS); assay type: physicochemical; settings: for Post-GVS analysis by XRPD (change of form): after DVS cycle 0-90-0% RH; for Moisture uptake (DVS): between 0-90% RH
Procedure: DVS studies were performed using a DVS Intrinsic (SMS, UK) or IGASORP (Hiden, UK). 10 to 50 mg of compound was transferred into the DVS and the weight change recorded with respect to a varying atmospheric humidity at 25° C. using the following parameters:
Drying at 40° C. until dm/dt<±0.002%/min
Min time: 30 min, Max time: 120 min (for IGASORP)
Characterize the sample after the DVS experiment by XRPD

[2] = biological target: T1, human URAT1 uptake transporter (Homo sapiens, UniProt Q96S37); assay: In vitro interaction study with the human URAT1 uptake transporter (uric acid uptake in MDCKII cells); assay type: cell-based; settings: MDCK-II, at a concentration of 10 μM, read-out: Inhibition of URAT1 mediated uric acid accumulation
T1 construct: expressed in transfected cells
T1 sequence (Q96S37 1-553): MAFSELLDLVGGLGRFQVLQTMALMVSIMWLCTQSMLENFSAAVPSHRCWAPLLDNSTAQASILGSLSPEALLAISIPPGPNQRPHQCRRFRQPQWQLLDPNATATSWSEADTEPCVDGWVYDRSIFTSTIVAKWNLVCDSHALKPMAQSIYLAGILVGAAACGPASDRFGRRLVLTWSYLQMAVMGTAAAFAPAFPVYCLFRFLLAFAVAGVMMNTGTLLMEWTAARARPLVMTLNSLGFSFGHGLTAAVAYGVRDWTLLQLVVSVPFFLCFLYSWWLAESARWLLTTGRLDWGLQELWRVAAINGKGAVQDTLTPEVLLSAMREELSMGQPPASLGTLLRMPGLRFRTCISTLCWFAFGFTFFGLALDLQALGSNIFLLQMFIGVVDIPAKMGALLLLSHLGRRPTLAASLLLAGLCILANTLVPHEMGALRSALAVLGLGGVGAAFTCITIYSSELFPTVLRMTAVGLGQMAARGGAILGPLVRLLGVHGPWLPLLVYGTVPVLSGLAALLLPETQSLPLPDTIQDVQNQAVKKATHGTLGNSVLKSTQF
Procedure: Uptake experiments were performed using MDCKII cells stably expressing the human URAT1 uptake transporter. Cells were cultured at 37±1° C. in an atmosphere of 95:5 air:CO2 and were plated onto standard 96-well tissue culture plates at the cell number described in Table 5.
Radiolabeled probe substrate transport was determined by measuring an aliquot (35 μL) from each well for liquid scintillation counting.

[3] = Stability in human microsomes; assay type: in vitro ADME
[4] = biological target: CYP2C9 (Homo sapiens, UniProt P11712); assay: CYP2C9 metabolic pathway / metabolite formation; assay type: in vitro ADME
[5] = cited from earlier work

Chain of CYP2C9 (P11712 whole entry): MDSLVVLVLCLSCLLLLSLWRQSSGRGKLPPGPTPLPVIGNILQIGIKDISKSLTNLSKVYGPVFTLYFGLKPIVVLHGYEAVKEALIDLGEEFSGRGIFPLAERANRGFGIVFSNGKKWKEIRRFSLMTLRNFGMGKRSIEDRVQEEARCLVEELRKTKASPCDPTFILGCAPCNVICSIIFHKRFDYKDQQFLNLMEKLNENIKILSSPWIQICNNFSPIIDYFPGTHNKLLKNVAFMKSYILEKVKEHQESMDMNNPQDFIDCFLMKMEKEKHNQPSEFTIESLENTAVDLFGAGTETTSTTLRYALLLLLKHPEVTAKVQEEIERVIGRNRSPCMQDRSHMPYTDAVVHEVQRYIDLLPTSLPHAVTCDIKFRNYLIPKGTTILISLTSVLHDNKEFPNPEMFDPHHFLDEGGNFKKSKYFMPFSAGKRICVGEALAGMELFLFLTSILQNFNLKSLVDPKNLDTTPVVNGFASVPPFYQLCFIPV

Row | Hygroscopicity ([1]; DVS, 25° C.) | Post-GVS analysis by XRPD (change of form) [1] | Moisture uptake (DVS) ([1]; 25° C.) [%] | SMILES | inhibition at 10 µM [2] [%] | other results
1 |  |  |  | [2H]c1c([2H])c([2H])c2c(C(=O)c3cc(Br)c(O)c(Br)c3)c(C(C)O)oc2c1[2H] (centres unmarked) [Form 1, (3,5-dibromo-4-hydroxyphenyl)(2-(1-hydroxyethyl)benzofuran-3-yl-4,5,6,7-d4)methanone] |  | RH at which the dehydrated form converted to hydrated form ([1]; DVS, 25° C.): ≥ 20%
2 |  |  |  | [2H]c1c([2H])c([2H])c2c(C(=O)c3cc(Br)c(O)c(Br)c3)c(C(C)O)oc2c1[2H] (centres unmarked) [Compound 1, (3,5-dibromo-4-hydroxyphenyl)(2-(1-hydroxyethyl)benzofuran-3-yl-4,5,6,7-d4)methanone] | 100 | Stability in human microsomes compared with benzbromarone [3]: more stable than benzbromarone in human microsomes; Formation of 6-OH benzbromarone and 5,6-di-OH benzbromarone metabolites [4]: not formed; CYP2C9 metabolic pathway ([4]; compared with benzbromarone): significantly reduced
3 |  |  |  | CCc1oc2ccccc2c1C(=O)c1cc(Br)c(O)c(Br)c1 [Benzbromarone] | 98 | Serum uric acid (sUA) level reached ([5]; chronic therapy): < 6 mg/dL; Hepatotoxicity ([5]; in certain patients): associated with hepatotoxicity
4 | non-hygroscopic | no change | 0.08 | [2H]c1c([2H])c([2H])c2c(C(=O)c3cc(Br)c(O)c(Br)c3)c(C(C)O)oc2c1[2H] (centres unmarked) [Form 2, (3,5-dibromo-4-hydroxyphenyl)(2-(1-hydroxyethyl)benzofuran-3-yl-4,5,6,7-d4)methanone] |  | 
5 | non-hygroscopic | no change | 0.04 | [2H]c1c([2H])c([2H])c2c(C(=O)c3cc(Br)c(O)c(Br)c3)c(C(C)O)oc2c1[2H] (centres unmarked) [Form 3, (3,5-dibromo-4-hydroxyphenyl)(2-(1-hydroxyethyl)benzofuran-3-yl-4,5,6,7-d4)methanone] |  | 
